How the values were obtained:
[1] = test system: Wnt activity (Sp5-Luc reporter gene, SW480 colon carcinoma cells); test: Screening assay for Wnt activity: Sp5-Luc reporter gene assay in SW480 cells; type: cell-based, human; details: Homo sapiens, overnight incubation
Description: The screening assay for Wnt activity is described as follows. Reporter cell lines can be generated by stably transducing cancer cell lines (e.g., colon cancer) or primary cells (e.g., IEC-6 intestinal cells) with a lentiviral construct that includes a Wnt-responsive promoter driving expression of the firefly luciferase gene.
SW480 colon carcinoma cells were transduced with a lentiviral vector expressing luciferase with a human Sp5 promoter consisting of a sequence of eight TCF/LEF binding sites. SW480 cells stably expressing the Sp5-Luc reporter gene and a hygromycin resistance gene were selected by treatment with 150 μg/mL of hygromycin for 7 days. These stably transduced SW480 cells were expanded in cell culture and used for all further screening activities. Each compound was dissolved in DMSO as a 10 mM stock and used to prepare compound source plates. Serial dilution (1:3, 10-point dose-response curves starting from 10 μM) and compound transfer was performed using the ECHO 550 (Labcyte, Sunnyvale, Calif.) into 384-well white solid bottom assay plates (Greiner Bio-One) with appropriate DMSO backfill for a final DMSO concentration of 0.1%. For Sp5-Luc reporter gene assays, the cells were plated at 4,000 cells/well in 384-well plates with medium containing 1% fetal bovine serum and incubated overnight at 37° C. and 5% CO2. Following incubation, 20 μl of BrightGlo luminescence reagent (Promega) was added to each well of the 384-well assay plates. The plates were placed on an orbital shaker for 2 min and then luminescence was quantified using the Envision (Perkin Elmer) plate reader. Readings were normalized to DMSO only treated cells, and normalized activities were utilized for EC50 calculations using the dose-response log (inhibitor) vs. response variable slope (four parameters) nonlinear regression feature available in GraphPad Prism 5.0 (or Dotmatics). For EC50 of >10 μM, the percent inhibition at 10 μM is provided.

[2] = test system: IL-6; test: IL-6 inhibition in LPS-stimulated THP-1 monocytes (HTRF); type: cell-based, human; details: Homo sapiens; THP-1 cells, 500 ng/mL LPS, 22 h, HTRF IL-6 readout; 10-point dose-response from 10 μM
Method: Human monocyte cell line (THP-1 cells; Catalog # TIB-202, ATCC, Manassas, Va.) were cultured in Roswell Park Memorial Institute (RPMI) 1640 Medium (Catalog #21870-100, Buffalo, N.Y.) with 1% L-glutamine, 1% HEPES, 1% Sodium Pyruvate, 2% Sodium Bicarbonate supplemented with 100 units/mL penicillin, 50 μg/mL streptomycin, 2-mercaptoethanol (0.05 mM) [basal medium] and 10% fetal bovine serum (Catalog #16140089, Life Technologies, Carlsbad, Calif.) at 37° C. and 5% CO2.
THP-1 cells were cultured in basal media with 1% FBS for 24 hours before the start of the assay. Each compound was dissolved in DMSO as a 10 mM stock and used to prepare compound source plates. Serial dilution (1:3, 10-point dose-response curves starting from 10 μM) and compound transfer was performed using the ECHO 550 (Labcyte, Sunnyvale, Calif.) into 384-well white low volume assay plates (Greiner Bio-One) with appropriate DMSO backfill for a final DMSO concentration of 0.1%. THP-1 cells were plated at 5000 cells/well in the 384-well plates and incubated at 37° C. for 2 h. 500 ng/mL of LPS was added after 2 hours and cells were incubated for another 22 hours at 37° C. Plates were spun in a centrifuge for 1 minute at […] and a mixture of anti-IL6 XL665, and anti-IL6 Cryptate diluted in reconstitution buffer (Cisbio Inc.) was added to each well. Following incubation for 3 hrs at room temperature, Homogeneous Time-Resolved Fluorescence (HTRF) was measured using the Envision (Perkin Elmer) at 665 nm and […]. The ratio of fluorescence at 665 nm to 620 nm was used as a readout for IL6 quantification. All samples were processed in duplicate. Readings were normalized to DMSO treated cells and normalized activities were utilized for EC50 calculations using the dose-response log (inhibitor) vs. response variable slope (four parameters) nonlinear regression feature available in GraphPad Prism 5.0 (or Dotmatics). For EC50 of >10 μM, the percent inhibition at 10 μM is provided.

[3] = test system: primary human fibroblasts derived from IPF patients (LL29 cells); test: Inhibition of the fibrotic process: αSMA staining in TGF-β1 treated LL29 fibroblasts; type: cell-based; details: Homo sapiens, Fibroblast, 96 h, TGF-β1 20 ng/mL, 4 days, % αSMA positive cells
Description: Representative compounds were screened using primary human fibroblasts (derived from IPF patients) treated with TGF-β1 to determine their ability to inhibit the fibrotic process.
Primary human fibroblasts derived from IPF patients (LL29 cells) [^1Xiaoqiu Liu, et. al., “Fibrotic Lung Fibroblasts Show Blunted Inhibition by cAMP Due to Deficient cAMP Response Element-Binding Protein Phosphorylation”, Journal of Pharmacology and Experimental Therapeutics (2005), 315(2), 678-687; ^2Watts, K. L., et. al., “RhoA signaling modulates cyclin D1 expression in human lung fibroblasts; implications for idiopathic pulmonary fibrosis”, Respiratory Research (2006), 7(1), 88] were obtained from American Type Culture Collection (ATCC) and expanded in F12 medium supplemented with 15% Fetal Bovine Serum and Penicillin/Streptomycin.
Each compound was dissolved in DMSO as a 10 mM stock and used to prepare compound source plates. Serial dilution (1:2, 11-point dose-response curves from 10 μM to […]) and compound transfer was performed using the ECHO 550 (Labcyte, Sunnyvale, Calif.) into 384-well clear bottom assay plates (Greiner Bio-One) with appropriate DMSO backfill for a final DMSO concentration of 0.1%. LL29 cells are plated at 1,500 cells/well in 80 μL/well F12 medium supplemented with 1% Fetal Bovine Serum. One hour after addition of the cells, TGF-01 (Peprotech; 20 ng/mL) was added to the plates to induce fibrosis (ref. 1 and 2 above). Wells treated with TGF-β1 and containing DMSO were used as controls. Cells were incubated at 37° C. and 5% CO2 for 4 days. Following incubation for 4 days, SYTOX green nucleic acid stain (Life Technologies [Thermo Fisher Scientific]) was added to the wells at a final concentration of 1 μM and incubated at room temperature for 30 min. Cells were then fixed using 4% formaldehyde (Electron Microscopy Sciences), washed 3 times with PBS followed by blocking and permeabilization using 3% Bovine Serum Albumin (BSA; Sigma) and 0.3% Triton X-100 (Sigma) in PBS. Cells were then stained with antibody specific to α-smooth muscle actin (aSMA; Abcam) (ref. 1 and 2 above) in 3% Bovine Serum Albumin (BSA; Sigma) and 0.3% Triton X-100 (Sigma) in PBS, and incubated overnight at 4° C. Cells were then washed 3 times with PBS, followed by incubation with Alexa Flor-647 conjugated secondary antibody (Life Technologies [Thermo Fisher Scientific]) and DAPI at room temperature for 1 hour. Cells were then washed 3 times with PBS and plates were sealed for imaging. αSMA staining was imaged by excitation at 630 nm and emission at 665 nm and quantified using the Compartmental Analysis program on the CellInsight CX5 (Thermo Scientific). Dead or apoptotic cells were excluded from analysis based on positive SYTOX green staining. % of total cells positive for aSMA were counted in each well and normalized to the average of 11 wells treated with TGF-01 on the same plate using Dotmatics' Studies Software. The normalized averages (fold change over untreated) of 3 replicate wells for each compound concentration were used to create dose-responses curves and EC50 values were calculated using non-linear regression curve fit in the Dotmatics' Studies Software. For EC50 of >10 μM, the percent inhibition at 10 μM is provided.

[4] = test system: SW480 colon cancer cells; test: Cell viability assay (CellTiter-Blue) in SW480 colon cancer cells; type: cell-based, human; details: Homo sapiens, 96 h, four days, CellTiter-Blue
Method: Representative compounds were screened using the following assay procedure to assess the effect on cell viability as described below.
Each compound was dissolved in DMSO as a 10 mM stock and used to prepare compound source plates. Serial dilution (1:3, 8-point dose-response curves from 10 μM to 0.0045 μM) and compound transfer was performed using the ECHO 550 (Labcyte, Sunnyvale, Calif.) into 96-well clear bottom, black-walled plates (Corning-Costar).
Approximately 2×10^3 SW480 colon cancer cells were seeded into each well and allowed to incubate in the presence or absence of compound for four days at 37° C./5% CO2. Eight replicates of DMSO-treated cells served as controls and cells treated with compound were performed in duplicate.
After incubation, 20 μL of CellTiter-Blue (Promega) was added to each well allowed to incubate for approximately 3 hours. This reagent was a buffered solution which contains resazurin, metabolically active cells were able to reduce rezarurin (blue) into resorufin (pink) which was highly fluorescent. This measured fluorescence was used as a readout for cell viability.
After incubation, the plates were read at Ex 560 nm Em 590 nm (Cytation 3, BioTek). Dose-response curves were generated and EC50 concentration values were calculated using non-linear regression curve fit in the GraphPad Prism (San Diego, Calif.) or Dotmatics' Studies Software (Bishops Stortford, UK). For EC50 of >10 μM, the percent inhibition at 10 μM is provided.

| SMILES | EC50 [1] [nM] | EC50 [2] [nM] | EC50 [3] [nM] | EC50 [4] [nM] |
| --- | --- | --- | --- | --- |
| CN(C)c1cncc(-c2cnc3[nH]nc(-c4cc5c(-c6cc(F)cc(CNS(C)(=O)=O)c6)cccc5[nH]4)c3c2)c1 [Compound 457, N-(3-(2-(5-(5-(Dimethylamino)pyridin-3-yl)-1H-pyrazolo[3,4-b]pyridin-3-yl)-1H-indol-4-yl)-5-fluorobenzyl)methanesulfonamide] | 283 | 1440 | 1720 | 1120 |
| CC(C)Nc1cncc(-c2cnc3[nH]nc(-c4cc5c(N6CCN(C)CC6)cccc5[nH]4)c3c2)c1 [Compound 212, N-Isopropyl-5-(3-(4-(4-methylpiperazin-1-yl)-1H-indol-2-yl)-1H-pyrazolo[3,4-b]pyridin-5-yl)pyridin-3-amine] | 1300 | 173 | 1480 | 1940 |
| CS(=O)(=O)NCc1cc(F)cc(-c2cccc3[nH]c(-c4n[nH]c5ncc(-c6cncc(NC(=O)c7ccccc7)c6)cc45)cc23)c1 [Compound 461, N-(5-(3-(4-(3-Fluoro-5-(methylsulfonamidomethyl)phenyl)-1H-indol-2-yl)-1H-pyrazolo[3,4-b]pyridin-5-yl)pyridin-3-yl)benzamide] | 210 | 547 | 1340 | 1690 |
| CC(C)Nc1cncc(-c2cnc3[nH]nc(-c4cc5c(-c6ccccc6F)cccc5[nH]4)c3c2)c1 [Compound 57, 5-(3-(4-(2-Fluorophenyl)-1H-indol-2-yl)-1H-pyrazolo[3,4-b]pyridin-5-yl)-N-isopropylpyridin-3-amine] | 371 | 753 | 411 | 1820 |
| Cc1ccncc1-c1cnc2[nH]nc(-c3cc4c(N5CCN(C)CC5)cccc4[nH]3)c2c1 [Compound 205, 3-(4-(4-Methylpiperazin-1-yl)-1H-indol-2-yl)-5-(4-methylpyridin-3-yl)-1H-pyrazolo[3,4-b]pyridine] | 3420 | 477 | 2560 | 3270 |
| CCCCC(=O)Nc1cncc(-c2cnc3[nH]nc(-c4cc5c(-c6ccccc6F)cccc5[nH]4)c3c2)c1 [Compound 64, N-(5-(3-(4-(2-Fluorophenyl)-1H-indol-2-yl)-1H-pyrazolo[3,4-b]pyridin-5-yl)pyridin-3-yl)pentanamide] | 796 | 3280 | 1770 | 3880 |
| Cn1cc(-c2cnc3[nH]nc(-c4cc5c(-c6cccs6)cccc5[nH]4)c3c2)cn1 [Compound 702, 5-(1-Methyl-1H-pyrazol-4-yl)-3-(4-(thiophen-2-yl)-1H-indol-2-yl)-1H-pyrazolo[3,4-b]pyridine] | 1320 | 1370 | 874 | 1120 |
| CN(C)c1cncc(-c2cnc3[nH]nc(-c4cc5ncccc5[nH]4)c3c2)c1 [Compound 485, 5-(3-(1H-Pyrrolo[3,2-b]pyridin-2-yl)-1H-pyrazolo[3,4-b]pyridin-5-yl)-N,N-dimethylpyridin-3-amine] | 3810 | 7400 | 2790 | 3440 |

Source: patent US20180214428A1, “3-(1H-INDOL-2-YL)-1H-PYRAZOLO[3,4-B]PYRIDINES AND THERAPEUTIC USES THEREOF” (Samumed, LLC, priority 2015, published 2018)
